Measured values reported in ChEMBL document CHEMBL4130453, “Discovery of an Isothiazole-Based Phenylpropanoic Acid GPR120 Agonist as a Development Candidate for Type 2 Diabetes” (ACS Med Chem Lett, 2017).
Values after ≈ are worked out from the molar mass of the structure shown.

Experiments:
[1] = target: Free fatty acid receptor 4 (Homo sapiens, UniProt Q5NUL3); test: Agonist activity at human GPR120 short splice variant expressed in HEK293 cells assessed as increase in intracellular calcium flux incubated for 30 mins measured for 300 secs at 1 sec interval by Fluo-4 NW dye based FLIPR assay; assay type: functional, cell-based
[2] = Half life in DIO C57bl/6J mouse at 20 mg/kg, po administered via gavage by LC-MS/MS analysis; assay type: ADME, organism-based; conditions: in vivo
[3] = system: Mus musculus; test: Antidiabetic activity in diet-induced obese C57BL/6 mouse assessed as reduction in plasma glucose delta AUC level at 0.3 mg/kg, po administered 30 mins prior to glucose challenge measured 90 mins post glucose challenge by OGTT relative to control; assay type: functional; set-up: scale not given: the % may be the effect or the level left
[4] = Metabolic stability in mouse liver microsomes assessed as parent compound remaining measured at 10 mins; assay type: ADME, microsome; conditions: liver microsomes, read-out: Stability
[5] = Inhibition of CYP450 (unknown origin) measured up to 10 uM; assay type: ADME; conditions: human
[6] = Half life in SPF Sprague-Dawley rat at 10 mg/kg, po by LC-MS/MS analysis; assay type: ADME, organism-based; conditions: in vivo
[7] = system: Mus musculus; test: Antidiabetic activity in diet-induced obese C57BL/6 mouse harboring wild type GPR120 assessed as reduction in plasma glucose delta AUC level at 60 mg/kg, po qd administered 30 mins prior to glucose challenge measured 90 mins post glucose challenge for 3 weeks; assay type: functional; set-up: scale not given: the % may be the effect or the level left
[8] = target: T1, hERG (KCNH2) (Homo sapiens, UniProt Q12809); test: Inhibition of human ERG at 10 uM by patch express assay relative to control
T1 sequence (Q12809 whole entry): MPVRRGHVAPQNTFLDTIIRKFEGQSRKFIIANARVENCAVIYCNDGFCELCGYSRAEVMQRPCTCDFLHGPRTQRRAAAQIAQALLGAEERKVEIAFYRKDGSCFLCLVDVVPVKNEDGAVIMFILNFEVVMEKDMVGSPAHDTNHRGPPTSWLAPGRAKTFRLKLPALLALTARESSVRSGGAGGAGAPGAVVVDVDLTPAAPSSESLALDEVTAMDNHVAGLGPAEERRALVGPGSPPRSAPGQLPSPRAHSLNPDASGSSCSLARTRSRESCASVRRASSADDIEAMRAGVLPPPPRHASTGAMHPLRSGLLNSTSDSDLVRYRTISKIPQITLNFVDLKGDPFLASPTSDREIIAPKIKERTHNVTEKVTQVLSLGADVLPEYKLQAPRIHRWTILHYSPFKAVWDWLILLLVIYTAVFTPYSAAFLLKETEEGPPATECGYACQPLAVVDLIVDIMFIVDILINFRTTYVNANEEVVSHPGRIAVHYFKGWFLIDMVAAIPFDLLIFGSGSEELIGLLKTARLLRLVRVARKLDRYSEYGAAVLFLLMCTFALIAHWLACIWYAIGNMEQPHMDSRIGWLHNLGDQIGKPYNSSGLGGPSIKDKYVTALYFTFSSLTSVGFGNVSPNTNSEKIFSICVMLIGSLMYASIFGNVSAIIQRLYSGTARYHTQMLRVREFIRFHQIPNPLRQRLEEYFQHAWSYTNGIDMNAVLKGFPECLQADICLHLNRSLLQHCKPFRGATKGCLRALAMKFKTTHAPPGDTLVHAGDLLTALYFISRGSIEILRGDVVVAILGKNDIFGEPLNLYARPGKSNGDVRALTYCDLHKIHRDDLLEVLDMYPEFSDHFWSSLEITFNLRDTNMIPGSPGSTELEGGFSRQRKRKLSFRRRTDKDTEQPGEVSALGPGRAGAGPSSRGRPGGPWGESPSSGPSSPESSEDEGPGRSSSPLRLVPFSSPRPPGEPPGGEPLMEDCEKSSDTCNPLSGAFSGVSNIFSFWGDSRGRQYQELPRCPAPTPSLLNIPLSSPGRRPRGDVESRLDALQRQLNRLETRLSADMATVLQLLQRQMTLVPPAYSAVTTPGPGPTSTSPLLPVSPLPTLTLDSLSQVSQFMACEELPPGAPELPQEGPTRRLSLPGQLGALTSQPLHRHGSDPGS

[9] = Kinetic solubility of the compound in PBS; assay type: physicochemical; conditions: read-out: Kinetic_solubility
[10] = Efflux ratio of apparent permeability from basolateral to apical side over apical to basolateral side in MDCK cells; assay type: ADME, cell-based, Canis lupus familiaris; conditions: dog
[11] = system: Mus musculus; test: Antidiabetic activity in diet-induced obese C57BL/6 mouse assessed as reduction in plasma glucose delta AUC level at 0.1 mg/kg, po administered 30 mins prior to glucose challenge measured 90 mins post glucose challenge by OGTT relative to control; assay type: functional; set-up: scale not given: the % may be the effect or the level left
[12] = Metabolic stability in rat liver microsomes assessed as parent compound remaining measured at 10 mins; assay type: ADME, microsome; conditions: liver microsomes, read-out: Stability
[13] = Oral bioavailability in SPF Sprague-Dawley rat at 10 mg/kg by LC-MS/MS analysis; assay type: ADME, organism-based; conditions: in vivo
[14] = system: Mus musculus; test: Antidiabetic activity in diet-induced obese C57BL/6 mouse assessed as reduction in plasma glucose delta AUC level administered orally 30 mins prior to glucose challenge measured 90 mins post glucose challenge by OGTT; assay type: functional, organism-based
[15] = system: Mus musculus; test: Antidiabetic activity in GPR120 knockout diet-induced obese C57BL/6 mouse assessed as reduction in plasma glucose delta AUC level at 60 mg/kg, po qd administered 30 mins prior to glucose challenge measured 90 mins post glucose challenge for 3 weeks; assay type: functional; set-up: scale not given: the % may be the effect or the level left
[16] = system: Mus musculus; test: Antidiabetic activity in diet-induced obese C57BL/6 mouse assessed as reduction in plasma glucose delta AUC level at 3 mg/kg, po administered 30 mins prior to glucose challenge measured 90 mins post glucose challenge by OGTT relative to control; assay type: functional; set-up: scale not given: the % may be the effect or the level left
[17] = target: Voltage-gated inwardly rectifying potassium channel KCNH2 (Homo sapiens, UniProt Q12809); test: Inhibition of human ERG
Voltage-gated inwardly rectifying potassium channel KCNH2, sequence (Q12809 whole entry): as above

[18] = target: Free fatty acid receptor 1 (Homo sapiens, UniProt O14842); test: Agonist activity at human GPR40 by calcium flux assay; assay type: functional
Free fatty acid receptor 1, sequence (O14842 whole entry): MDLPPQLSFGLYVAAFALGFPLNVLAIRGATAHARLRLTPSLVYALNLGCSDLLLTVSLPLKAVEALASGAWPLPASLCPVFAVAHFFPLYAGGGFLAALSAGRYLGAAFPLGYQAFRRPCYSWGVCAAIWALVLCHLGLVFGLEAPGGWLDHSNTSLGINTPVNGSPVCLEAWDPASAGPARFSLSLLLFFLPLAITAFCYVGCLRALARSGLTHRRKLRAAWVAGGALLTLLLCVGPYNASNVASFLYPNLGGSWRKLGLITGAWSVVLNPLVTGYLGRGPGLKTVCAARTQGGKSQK

[19] = Cmax in DIO C57bl/6J mouse at 20 mg/kg, po administered via gavage by LC-MS/MS analysis; assay type: ADME, organism-based; set-up: dose 20 mg/kg, route oral; conditions: in vivo
[20] = Metabolic stability in human liver microsomes assessed as parent compound remaining measured at 10 mins; assay type: ADME, microsome; conditions: read-out: Stability
[21] = Protein binding in human plasma; assay type: ADME, cell-free; conditions: read-out: PPB (converted)
[22] = system: Mus musculus; test: Antidiabetic activity in diet-induced obese C57BL/6 mouse assessed as reduction in plasma glucose delta AUC level at 1 mg/kg, po administered 30 mins prior to glucose challenge measured 90 mins post glucose challenge by OGTT relative to control; assay type: functional; set-up: scale not given: the % may be the effect or the level left
[23] = target: T2, Free fatty acid receptor 4 (Mus musculus, UniProt Q7TMA4); test: Agonist activity at mouse GPR120 by calcium flux assay; assay type: functional
T2 sequence (Q7TMA4 whole entry): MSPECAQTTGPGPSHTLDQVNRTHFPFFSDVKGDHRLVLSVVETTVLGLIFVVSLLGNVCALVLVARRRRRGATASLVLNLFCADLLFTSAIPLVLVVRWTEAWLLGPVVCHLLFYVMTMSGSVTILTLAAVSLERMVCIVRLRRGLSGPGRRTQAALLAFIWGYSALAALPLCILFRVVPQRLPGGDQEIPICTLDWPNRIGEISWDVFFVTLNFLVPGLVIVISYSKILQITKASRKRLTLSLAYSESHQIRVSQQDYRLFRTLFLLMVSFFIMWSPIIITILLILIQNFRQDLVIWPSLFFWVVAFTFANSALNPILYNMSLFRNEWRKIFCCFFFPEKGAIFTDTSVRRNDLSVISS

[24] = Protein binding in mouse plasma; assay type: ADME, cell-free; conditions: read-out: PPB (converted)
[25] = Ratio of drug uptake in DIO C57bl/6J mouse adipose tissue to plasma at 20 mg/kg, po administered via gavage; assay type: ADME, organism-based; conditions: adipose tissue and plasma
[26] = Protein binding in rat plasma; assay type: ADME, cell-free; conditions: read-out: PPB (converted)
[27] = target: T1, hERG (KCNH2); test: Inhibition of human ERG at 3 uM by patch express assay relative to control
[28] = Apparent permeability from apical to basolateral side in MDCK cells; assay type: ADME, cell-based, Canis lupus familiaris; conditions: dog
[29] = AUClast in DIO C57bl/6J mouse at 20 mg/kg, po administered via gavage by LC-MS/MS analysis; assay type: ADME, organism-based; set-up: dose 20 mg/kg, route oral, time 0 - last; conditions: in vivo
[30] = target: T1, hERG (KCNH2); test: Inhibition of human ERG at 30 uM by patch express assay relative to control
[31] = target: T3, PXR (nuclear receptor subfamily 1 group I member 2) (Homo sapiens, UniProt O75469); test: Activation of PXR (unknown origin) at 5 uM relative to control; conditions: read-out: Activity
T3 sequence (O75469 whole entry): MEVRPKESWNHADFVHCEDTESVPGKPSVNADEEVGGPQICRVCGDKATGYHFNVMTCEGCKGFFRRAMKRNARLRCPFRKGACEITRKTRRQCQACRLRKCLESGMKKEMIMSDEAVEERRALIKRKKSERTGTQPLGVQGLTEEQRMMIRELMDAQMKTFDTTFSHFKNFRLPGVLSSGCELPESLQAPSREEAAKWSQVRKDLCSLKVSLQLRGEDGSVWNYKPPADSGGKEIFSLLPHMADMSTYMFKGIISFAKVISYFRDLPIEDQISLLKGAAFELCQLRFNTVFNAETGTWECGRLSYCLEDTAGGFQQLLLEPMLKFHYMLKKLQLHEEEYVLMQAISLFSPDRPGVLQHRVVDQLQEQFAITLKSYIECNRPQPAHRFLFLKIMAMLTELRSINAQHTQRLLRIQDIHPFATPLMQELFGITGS

[32] = AUClast in SPF Sprague-Dawley rat at 10 mg/kg, po by LC-MS/MS analysis; assay type: ADME, organism-based; set-up: dose 10 mg/kg, time 0 - last, route oral; conditions: in vivo
[33] = Cmax in SPF Sprague-Dawley rat at 10 mg/kg, po by LC-MS/MS analysis; assay type: ADME, organism-based; set-up: dose 10 mg/kg, route oral; conditions: in vivo
[34] = target: T4, Free fatty acid receptor 4 (Homo sapiens, UniProt Q5NUL3); test: Agonist activity at PK-tagged human GPR120 long isoform expressed in CHOK1 cells co-expressing EA-tagged beta-arrestin assessed as beta-gal enzyme complex formation after 90 mins by enzyme fragment complementation assay; assay type: cell-based
T4 sequence (Q5NUL3 whole entry): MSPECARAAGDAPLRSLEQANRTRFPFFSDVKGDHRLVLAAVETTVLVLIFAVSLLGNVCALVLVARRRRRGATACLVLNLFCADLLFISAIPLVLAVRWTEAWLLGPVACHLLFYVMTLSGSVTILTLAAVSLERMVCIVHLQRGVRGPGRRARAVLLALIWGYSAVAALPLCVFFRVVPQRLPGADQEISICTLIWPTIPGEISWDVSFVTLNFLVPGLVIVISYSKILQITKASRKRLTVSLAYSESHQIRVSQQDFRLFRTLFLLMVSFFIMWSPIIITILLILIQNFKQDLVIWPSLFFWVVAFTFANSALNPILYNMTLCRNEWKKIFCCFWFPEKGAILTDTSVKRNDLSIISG

N#Cc1ccc(-c2nsc(C(F)(F)F)c2COc2c(F)cc(CCC(=O)O)cc2F)cc1
EC50 [1]: 672 nM

CCc1ccc(-c2nsc(C(F)(F)F)c2COc2c(F)cc(CCC(=O)O)cc2F)cc1
EC50 [1]: 34 nM

CCc1cc(CCC(=O)O)ccc1OCc1c(-c2ccc(Cl)cc2)nsc1C(F)(F)F
EC50 [1]: 202 nM

O=C(O)CCc1ccc(OCc2c(-c3ccc(Cl)cc3)nsc2C(F)(F)F)cc1C(F)(F)F
EC50 [1]: 236 nM

O=C(O)CCc1cc(F)c(OCc2c(-c3ccc(Cl)cc3F)nsc2C(F)(F)F)c(F)c1
half-life [2]: 314 min | Activity [3]: 34% | remaining at 10 min [4]: 87 to 100% | inhibition (INH) [5]: Not Active | half-life [6]: 58.8 min | Activity [7]: 137% | inhibition at 10 µM [8]: 11.2% | solubility kinetic [9]: 38.9 µM (≈ 19.3 µg/mL) | efflux ratio [10]: 1.05 | Activity [11]: 3% | EC50 [1]: 42 nM | remaining at 10 min [12]: 87 to 100% | bioavailability [13]: 57.2% | Activity [14]: Dose-dependent effect | Activity [15]: 2% | Activity [16]: 83% | IC50 [17]: > 50 µM | EC50 [18]: > 5 µM | Cmax [19]: 9270 ng/mL | remaining at 10 min [20]: 87 to 100% | fraction unbound [21]: 0.0013 | Activity [22]: 61% | EC50 [23]: 77 nM | fraction unbound [24]: 0.0032 | Kp [25]: 0.08 | fraction unbound [26]: 0.0019 | inhibition at 3 µM [27]: 5.9% | Papp A→B [28]: 17.5 ×10⁻⁶ cm/s | AUC(0-t) [29]: 46800 ng·h/mL | inhibition at 30 µM [30]: 12.5% | activity at 5 µM [31]: 25.4% | AUC(0-t) [32]: 4470 ng·h/mL | Cmax [33]: 3560 ng/mL

O=C(O)CCc1c(F)c(F)c(OCc2c(-c3ccc(Cl)cc3)nsc2C(F)(F)F)c(F)c1F
EC50 [1]: 173 nM

CCc1ccc(-c2snc(Cl)c2COc2ccc(CCC(=O)O)c(C)c2C)cc1
remaining at 10 min [4]: 102% | EC50 [1]: 56 nM | remaining at 10 min [20]: 76%

CCc1ccc(-c2sncc2COc2ccc(CCC(=O)O)c(C)c2C)cc1
EC50 [1]: 191 nM

O=C(O)CCc1cc(F)c(OCc2c(-c3ccc(Cl)c(F)c3)nsc2C(F)(F)F)c(F)c1
remaining at 10 min [4]: 87 to 100% | EC50 [1]: 25 nM | remaining at 10 min [12]: 87 to 100% | EC50 [18]: 3 µM | remaining at 10 min [20]: 87 to 100% | EC50 [23]: 102 nM

O=C(O)CCc1cc(F)c(OCc2c(-c3ccc(OC(F)(F)F)cc3)nsc2C(F)(F)F)c(F)c1
EC50 [34]: 99 nM | EC50 [1]: 314 nM

O=C(O)CCc1ccc(OCc2c(-c3ccc(Cl)cc3)nsc2C(F)(F)F)c(Br)c1
EC50 [1]: 31 nM

Cc1snc(-c2ccc(Cl)cc2)c1COc1ccc(CCC(=O)O)c(C)c1C
remaining at 10 min [4]: 35% | EC50 [34]: 128 nM | EC50 [1]: 106 nM | remaining at 10 min [12]: 57% | remaining at 10 min [20]: 74%

O=C(O)CCc1cc(F)c(OCc2c(-c3ccc(C(F)(F)F)cc3)nsc2C(F)(F)F)c(F)c1
EC50 [1]: 108 nM

O=C(O)CCc1cc(F)c(OCc2c(-c3ccccc3)nsc2C(F)(F)F)c(F)c1
EC50 [1]: 160 nM
